According to patent publication US12576099B2, “Ribose-modified cap analog and use thereof” (Beijing Youcare Kechuang Pharmaceutical Technology Co., Ltd., priority 2024, dated 2026):

How the values were obtained:
[1] = Characterization of lipid nanoparticles encapsulating Fluc-mRNA prepared from different cap structures; format: physicochemical; conditions: for Particle size: LNP (YK-009/DSPC/cholesterol/DMG-PEG2000) with Fluc-mRNA transcribed using the named cap analog; for PDI: LNP with Fluc-mRNA transcribed using the named cap analog; for EE: encapsulation efficiency of LNP with Fluc-mRNA transcribed using the named cap analog
Protocol: Cationic lipid YK-009 (Beijing Youcare Kechuang Pharmaceutical Technology Co., Ltd.), DSPC (AVT (Shanghai) Pharmaceutical Technology Co., Ltd.), cholesterol (AVT (Shanghai) Pharmaceutical Technology Co., Ltd.), and DMG-PEG2000 were dissolved in ethanol at a molar ratio of 49:10:39.5:1.5, and the mRNA was diluted in 50 mM citrate buffer (pH=4). The ethanol lipid solution was mixed with the Fluc-mRNA aqueous solution prepared from different cap structures at a volume ratio of 1:3 using a microfluidic device at a flow rate of 10 mL/min to prepare LNPs at a weight ratio of total lipid to mRNA of approximately 15:1.
The resulting liposomes were diluted to 10-fold volume with PBS, and then ultrafiltered with a 300 KDa ultrafiltration tube to remove ethanol. The volume was then fixed to a certain volume with PBS. Finally, the LNPs were filtered through a 0.2 μm sterile filter to obtain an LNP preparation encapsulating Fluc-mRNA using YK-009/DSPC/cholesterol/DMG-PEG2000 (at a molar ratio of 49:10:39.5:1.5).
The particle size and polydispersity index (PDI) were determined by dynamic light scattering using a Malvern laser particle size analyzer. 10 μL of the liposome solution was taken, diluted to 1 mL with RNase-free deionized water, and added to a sample pool. Each sample was measured in triplicate. The measurement conditions were: a scattering angle of 90° and a temperature of 25° C. The encapsulation efficiency of LNPs was determined using the Quant-iT RiboGreen RNA Quantification Kit (Thermo Fisher Scientific, UK) according to the manufacturer's instructions.

BALB/C mice = assay: In vivo imaging of Fluc-mRNA LNP expression in mice
Protocol: The LNP preparation containing 5 μg of cap analog-transcribed Fluc-mRNA was intramuscularly injected into female BALB/C mice aged 4 to 6 weeks and weighing 17 to 19 g. At specific time points after administration (6 hours, 12 hours, 24 hours, 48 hours, 96 hours, and 168 hours), the mice were intraperitoneally injected with fluorescence imaging substrate. The mice were then allowed to move freely for 5 minutes, followed by detection of the total radiation intensity of the protein expressed by LNP-carrying mRNA in the mice using an IVIS Spectrum small-animal in vivo imaging system (corresponding to the amount of protein expression).
In the in vivo imaging experiments in mice, the multiple of the total radiation intensity for each group of mice relative to the m6A group is shown in Table 8 (where the total radiation intensity is represented as the given value×10^8 p/s).

[2] = 6 h, 5 μg Fluc-mRNA LNP intramuscular, mice
[3] = 12 h, 5 μg Fluc-mRNA LNP intramuscular, mice
[4] = 24 h, 5 μg Fluc-mRNA LNP intramuscular, mice
[5] = 48 h, 5 μg Fluc-mRNA LNP intramuscular, mice
[6] = 96 h, 5 μg Fluc-mRNA LNP intramuscular, mice
[7] = 168 h, 5 μg Fluc-mRNA LNP intramuscular, mice

Row | Structure (SMILES) | Particle size [1] [nm] | PDI [1] | EE [1] [%] | Multiple of total radiation intensity relative to m6A (BALB/C mice; 6 h) | Total radiation intensity (BALB/C mice; [2]) | Multiple of total radiation intensity relative to m6A (BALB/C mice; 12 h) | Total radiation intensity (BALB/C mice; [3]) | Multiple of total radiation intensity relative to m6A (BALB/C mice; 24 h) | Total radiation intensity (BALB/C mice; [4]) | Multiple of total radiation intensity relative to m6A (BALB/C mice; 48 h) | Total radiation intensity (BALB/C mice; [5]) | Multiple of total radiation intensity relative to m6A (BALB/C mice; 96 h) | Total radiation intensity (BALB/C mice; [6]) | Total radiation intensity (BALB/C mice; [7]) | Total radiation intensity (BALB/C mice; at 12 hours) | Total radiation intensity (BALB/C mice; at 48 hours) | Total radiation intensity, times that of N-7113 (BALB/C mice; at 12 hours) [times] | Total radiation intensity, times that of YK-CAP-101 (BALB/C mice; at 12 hours) [times] | Total radiation intensity, times that of N-7113 (BALB/C mice; at 48 hours) [times] | Total radiation intensity, times that of YK-CAP-101 (BALB/C mice; at 48 hours) [times]
1 | CO[C@@H]1[C@H](OP(=O)(O)OC[C@H]2O[C@@H](n3cnc4c(=O)[nH]c(N)nc43)[C@H](O)[C@@H]2O)[C@@H](COP(=O)(O)OP(=O)(O)OP(=O)(O)OC[C@H]2OC([n+]3cn(C)c4c(=O)[nH]c(N)nc43)[C@H](O)[C@@H](O)[C@@H]2O)O[C@H]1n1cnc2c(N)ncnc21 (stereo partly drawn) [YK-CAP-101] | 75.45 | 0.043 | 93.4 | 0.8 | 1.81 ×108 p/s | 0.5 | 0.96 ×108 p/s | 0.5 | 0.36 ×108 p/s | 0.4 | 0.19 ×108 p/s | 1.5 | 0.04 ×108 p/s | 0.02 ×108 p/s | 0.96 ×10^8 p/s | 0.19 ×10^8 p/s | – | – | – | –
2 | CO[C@@H]1[C@H](OP(=O)(O)OC[C@H]2O[C@@H](n3cnc4c(=O)[nH]c(N)nc43)[C@H](O)[C@@H]2O)[C@@H](COP(=O)(O)OP(=O)(O)OP(=O)(O)OC[C@H]2O[C@@H]([n+]3cn(C)c4c(=O)[nH]c(N)nc43)[C@H](O)[C@]2(C)NC(C)=O)O[C@H]1n1cnc2c(N)ncnc21 [YK-CAP-106] | 68.24 | 0.048 | 97.1 | 2.5 | 5.88 ×108 p/s | 3.2 | 6.85 ×108 p/s | 2.7 | 1.76 ×108 p/s | 1.0 | 0.53 ×108 p/s | 2.6 | 0.11 ×108 p/s | 0.03 ×108 p/s | – | – | – | – | – | –
3 | COC(C)[C@H]1[C@@H](O)[C@H]([n+]2cn(C)c3c(=O)[nH]c(N)nc32)O[C@@H]1COP(=O)(O)OP(=O)(O)OP(=O)(O)OC[C@H]1O[C@@H](n2cnc3c(N)ncnc32)[C@H](OC)[C@@H]1OP(=O)(O)OC[C@H]1O[C@@H](n2cnc3c(=O)[nH]c(N)nc32)[C@H](O)[C@@H]1O (stereo partly drawn) [YK-CAP-107] | 78.42 | 0.053 | 96.3 | 3.4 | 8.09 ×108 p/s | 3.2 | 6.87 ×108 p/s | 2.9 | 1.92 ×108 p/s | 1.2 | 0.60 ×108 p/s | 2.5 | 0.11 ×108 p/s | 0.03 ×108 p/s | – | – | – | – | – | –
4 | CO[C@@H]1[C@H](OP(=O)(O)OC[C@H]2O[C@@H](n3cnc4c(=O)[nH]c(N)nc43)[C@H](O)[C@@H]2O)[C@@H](COP(=O)(O)OP(=O)(O)OP(=O)(O)OC[C@H]2O[C@@H]([n+]3cn(C)c4c(=O)[nH]c(N)nc43)[C@H](O)[C@@H]2C(C)NC(C)=O)O[C@H]1n1cnc2c(N)ncnc21 (stereo partly drawn) [YK-CAP-108] | 83.13 | 0.023 | 96.4 | 2.7 | 6.42 ×108 p/s | 2.8 | 6.03 ×108 p/s | 2.6 | 1.70 ×108 p/s | 2.0 | 1.04 ×108 p/s | 1.3 | 0.19 ×108 p/s | 0.02 ×108 p/s | – | – | – | – | – | –
5 | CO[C@@H]1[C@H](OP(=O)(O)OC[C@H]2O[C@@H](n3cnc4c(=O)[nH]c(N)nc43)[C@H](O)[C@@H]2O)[C@@H](COP(=O)(O)OP(=O)(O)OP(=O)(O)OC[C@H]2O[C@@H]([n+]3cn(C)c4c(=O)[nH]c(N)nc43)[C@H](O)[C@@H]2C(C)F)O[C@H]1n1cnc2c(N)ncnc21 (stereo partly drawn) [YK-CAP-109] | 86.35 | 0.035 | 97.2 | 2.6 | 6.04 ×108 p/s | 2.8 | 5.84 ×108 p/s | 2.8 | 1.85 ×108 p/s | 1.0 | 0.54 ×108 p/s | 2.7 | 0.14 ×108 p/s | 0.03 ×108 p/s | – | – | – | – | – | –
6 | CO[C@@H]1[C@H](OP(=O)(O)OC[C@H]2O[C@@H](n3cnc4c(=O)[nH]c(N)nc43)[C@H](O)[C@@H]2O)[C@@H](COP(=O)(O)OP(=O)(O)OP(=O)(O)OC[C@H]2O[C@@H]([n+]3cn(C)c4c(=O)[nH]c(N)nc43)[C@H](O)[C@@H]2C(F)F)O[C@H]1n1cnc2c(N)ncnc21 [YK-CAP-110] | 69.64 | 0.033 | 97.7 | 4.1 | 9.52 ×108 p/s | 5.0 | 10.55 ×108 p/s | 4.6 | 3.04 ×108 p/s | 4.4 | 2.30 ×108 p/s | 1.0 | 0.27 ×108 p/s | 0.04 ×108 p/s | 10.55 ×10^8 p/s | 2.30 ×10^8 p/s | 2.4 | 11.0 | 4.7 | 12.1
7 | CCN(CC)C(=O)[C@H]1[C@@H](O)[C@H]([n+]2cn(C)c3c(=O)[nH]c(N)nc32)O[C@@H]1COP(=O)(O)OP(=O)(O)OP(=O)(O)OC[C@H]1O[C@@H](n2cnc3c(N)ncnc32)[C@H](OC)[C@@H]1OP(=O)(O)OC[C@H]1O[C@@H](n2cnc3c(=O)[nH]c(N)nc32)[C@H](O)[C@@H]1O [YK-CAP-111] | 78.33 | 0.053 | 95.1 | 3.7 | 8.61 ×108 p/s | 4.4 | 9.34 ×108 p/s | 4.2 | 2.75 ×108 p/s | 3.8 | 1.95 ×108 p/s | 1.1 | 0.27 ×108 p/s | 0.03 ×108 p/s | 9.34 ×10^8 p/s | 1.95 ×10^8 p/s | 2.2 | 9.7 | 4.0 | 10.3
8 | COC[C@@H]1[C@H](OP(=O)(O)OC[C@H]2O[C@@H](n3cnc4c(=O)[nH]c(N)nc43)[C@H](O)[C@@H]2O)[C@@H](COP(=O)(O)OP(=O)(O)OP(=O)(O)OC[C@H]2O[C@@H]([n+]3cn(C)c4c(=O)[nH]c(N)nc43)[C@H](O)[C@@H]2O)O[C@H]1n1cnc2c(N)ncnc21 [YK-CAP-113] | 79.34 | 0.043 | 96.1 | 2.6 | 6.07 ×108 p/s | 3.6 | 7.63 ×108 p/s | 3.1 | 2.02 ×108 p/s | 2.5 | 1.29 ×108 p/s | 1.2 | 0.31 ×108 p/s | 0.04 ×108 p/s | – | – | – | – | – | –
